Patent publication US20230303710A1, “METHODS AND COMPOSITIONS FOR INHIBITION OF DIHYDROOROTATE DEHYDROGENASE IN COMBINATION WITH AN ANTI-CD38 THERAPEUTIC AGENT” (OHIO STATE INNOVATION FOUNDATION, priority 2019, published 2023)
pEC50: −log10 of the molar value.

Tests used:
[1] = test system: MV-411 cells with wild type (WT) p53; test: CD38 surface expression by flow cytometry in MV-411 cells with wild type p53; assay type: cell-based; settings: 1 µM, 72 hours, versus vehicle
Description: (§1) FIGS. 1A-1B show representative data for the effect of a representative DHODH inhibitor on the expression of CD38 in AML cells. Briefly, MV-411 cells with wild type (WT) p53 (FIG. 1A) or mutant p53 (FIG. 1B) were treated with brequinar (BRQ, 1 µM), or Cpd3 (1 µM) for 72 hours, and then the CD38 surface expression was determined by flow cytometry. The CD38 mean fluorescent intensity (MFI) is calculated based on the X-median expression.
(§2) MV-411 cells with wild type (WT) p53 or mutant p53 were treated with brequinar (BRQ, 1 µM), or Cpd3 (1 µM) for 72 hours. CD38 surface expression was determined by flow cytometry. The CD38 mean fluorescent intensity (MFI) is calculated based on the X-median expression. FIG. 1A show data obtained with MV-411 having wild type p53. […] FIG. 1B show the results obtained with MV-411 having a mutant p53.

MV4-11 cells = test: MV4-11 xenograft (secondary engraftment) survival study in NSG mice; assay type: in vivo; settings: Cpd3 50 mg/kg PO MWF, daratumumab 1 µg/g IP TF
Description: FIGS. 2A-2D show representative data for the effect of a representative DHODH inhibitor in combination with an anti-CD38 antibody in a mouse xenograft model. FIG. 2A show representative data for percent survival versus time post-engraftment. Briefly, NSG mice were injected with 0.3 × 10^6 spleen cells from an MV4-11 engrafted leukemic donor mouse (N=7 per group). Starting at day 7 post-engraftment, mice were treated with vehicle; 50 mg/kg Cpd3 (PO; indicated as “Cpd3 PO” in the figure) on a dosing schedule of Monday/Wednesday/Friday (MWF); 1 µg/g daratumumab (IP; indicated as “Dara IP” in the figure) on a dosing schedule of Tuesday and Friday (TF); or Cpd3 and daratumumab combination (indicated as “Cpd3+Dara” in the figure). The Cpd3 and daratumumab combination treatment comprised dosing with 50 mg/kg Cpd3 on a dosing scheduled of Monday/Wednesday/Friday and dosing with 1 µg/g daratumumab on a dosing schedule of Tuesday and Friday (TF). Mice were monitored until reaching early/end removal criteria (ERC) and overall survival was calculated using Kapler Meyer analysis. The arrow indicates start of treatment. […] The treatment type is indicated below each photographic image as outlined for FIG. 2A. […] Weight loss is typically associated with leukemia progression and has also been associated with DHODH inhibitor treatment. […] Briefly, Spleens were isolated from the animals from each treatment group as they reached ERC. The percentage of human CD45+ cells in the spleen were determined by flow cytometry.
Xenograft Model Methodology. Animal studies were approved by the Institutional Laboratory Animal Care and Use Committee (IACUC) at the Ohio State University. 1E7 M4-11 cells were engrafted intravenously into NSG mice (males, 12-week old, strain NOD.Cg-Prkdcscid ll2rgtm1Wjl/SzJ). These mice were allowed to develop a fatal leukemia, at which point splenocytes containing leukemia cells were collected and cryopreserved. […] Overall survival was calculated using Kapler Meyer analysis. […]

[2] = test system: MV-411 cells with mutant p53; test: CD38 surface expression by flow cytometry in MV-411 cells with mutant p53; assay type: cell-based; settings: 1 µM, 72 hours, versus vehicle
Description: as §1, §2

MOLM-13 cells = test: MOLM-13 xenograft survival study in NCG mice; assay type: in vivo; settings: Cpd4 10 mg/kg PO TIWK (MWF); Daratumumab 1 µg/g IP TF; Isatuximab 2.5 mg/kg IP TF; start 4 days post engraftment; vehicle 16.5
Description: Xenograft Model Methodology. Animal studies were performed at Charles River Laboratories (CRL). 1E5 MOLM-13 cells were engrafted intravenously into NCG mice (males, 8-12-week old). 4 days post engraftment, mice were randomly enrolled to receive: • 1. Vehicle • 2. 10 mg/kg Cpd 53 orally (daily) • 3. 10 mg/kg Cpd 53 orally (TIWK, Monday, Wednesday, and Friday) • 4. 4 mg/kg BAY2402234 orally (daily) • 5. 1 µg/g Daratumumab via intraperitoneal injection (BIWK, Tuesday and Friday) • 6. 2.5 µg/g Isatuximab via intraperitoneal injection (BIWK, Tuesday and Friday) • 7. Cpd4 (daily) and Daratumumab (BIWK) combination • 8. Cpd4 (TIWK) and Daratumumab (BIWK) combination • 9. BAY2402234 (daily) and Daratumumab (BIWK) combination • 10. Cpd4 (daily) and Isatuximab (BIWK) combination • 11. […]
Procedures used in the study are as follows: • Mice with 1×10^5 MOLM-13 tumor cells in 0% Matrigel iv tail vein. • Study start is 4 days post implant • Animals were randomized into treatment groups based on Day 1 bodyweight. • Cell Injection Volume was 0.2 mL/mouse. • Age at Start Date: 8 to 12 weeks. • Body Weight: qd x 5 then biwk to end • Any individual animal with a single observation of > than 30% body weight loss or three consecutive measurements of >25% body weight loss was euthanized. • Any group with a mean body weight loss of >20 % or >10% mortality ceased dosing. […] Animals were to be monitored individually. […]

[3] = test system: a variety of unrelated viruses; settings: Harvey et al. (2009) Antiviral Res.; read-out: EC50, inhibition of virus replication in vitro; cited from earlier work

## CCOc1ccc(-c2ccc(-c3cc(C(=O)O)c4cc(F)ccc4n3)cc2)cc1 [Cpd3, 2-(4′-ethoxy-[1,1′-biphenyl]-4-yl)-6-fluoroquinoline-4-carboxylic acid]
[1]
  CD38 surface expression (mean fluorescent intensity): upregulated
MV4-11 cells; FIG. 2A
  survival compared to the vehicle treatment control group / other treatment groups: modest improvement in survival
MV4-11 cells; start day 7 post-engraftment, vehicle 35 days
  Estimated median survival time (days PE): 42 days
MV4-11 cells; N=7 per group, start day 7 post-engraftment
  N died: 7
[2]
  CD38 surface expression (mean fluorescent intensity): highly upregulated

## CCCCOc1cccc(-c2ccc(-c3cc(C(=O)O)c4cc(F)ccc4n3)cc2)c1 [Cpd4, 2-(3′-butoxy-[1,1′-biphenyl]-4-yl)-6-fluoroquinoline-4-carboxylic acid]
MOLM-13 cells
  Median survival: 43 days

## O=C(N[C@@H]1CCCc2c1[nH]c1ccc(Cl)cc21)c1ccccn1 [GSK983]
[3]
  pEC50: 7.70 to 8.30

## Cc1c(-c2ccc(-c3ccccc3F)cc2)nc2ccc(F)cc2c1C(=O)O [brequinar, reference compound]
[1]
  CD38 surface expression (mean fluorescent intensity): upregulated
[2]
  CD38 surface expression (mean fluorescent intensity): highly upregulated
